The record followed here is patent US20260184707A1, “PHARMACEUTICAL COMPOUNDS FOR THE TREATMENT OF COMPLEMENT MEDIATED DISORDERS” (ALEXION PHARMACEUTICALS, INC., priority 2022, published 2026).

The experiment has as its target T1, Human complement C1s enzyme (Homo sapiens, UniProt P09871).
T1 construct: purified from human serum, Complement Technology, Inc; purchased Complement Technology, Inc; host or cells: human serum (plasma-derived native protein)
T1 sequence (P09871 438-688 limits assumed): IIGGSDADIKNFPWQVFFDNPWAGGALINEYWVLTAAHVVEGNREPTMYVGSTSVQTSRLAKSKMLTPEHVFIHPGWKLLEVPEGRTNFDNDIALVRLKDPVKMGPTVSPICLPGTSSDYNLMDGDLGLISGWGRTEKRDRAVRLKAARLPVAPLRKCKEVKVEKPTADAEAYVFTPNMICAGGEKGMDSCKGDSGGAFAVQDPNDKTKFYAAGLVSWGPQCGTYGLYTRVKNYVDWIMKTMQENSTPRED
T1 sequence (P09871 16-437 partner limits assumed): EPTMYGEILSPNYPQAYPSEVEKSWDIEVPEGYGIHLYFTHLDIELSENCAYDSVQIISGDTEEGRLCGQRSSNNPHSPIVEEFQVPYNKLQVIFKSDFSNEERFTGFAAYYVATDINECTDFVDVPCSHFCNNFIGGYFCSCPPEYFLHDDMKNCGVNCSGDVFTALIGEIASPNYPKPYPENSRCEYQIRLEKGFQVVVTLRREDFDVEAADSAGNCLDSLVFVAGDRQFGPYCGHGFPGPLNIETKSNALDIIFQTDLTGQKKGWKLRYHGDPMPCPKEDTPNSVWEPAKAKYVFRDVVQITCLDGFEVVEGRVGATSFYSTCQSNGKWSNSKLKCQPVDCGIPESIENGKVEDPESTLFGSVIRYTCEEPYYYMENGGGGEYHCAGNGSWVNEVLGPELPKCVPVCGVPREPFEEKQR
As to the kind of experiment: Human C1s enzyme assay. The experiment is classed as biochemical. The settings on record: human complement C1s enzyme 1.16 nM, substrate Z-L-Lys-SBzl, A405; read-out: IC50 (Stars). A digest of the protocol:
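Thioesterase activity followed colorimetrically (DTNB, A405, 30-s reads) using 100 μM Z-L-Lys-SBzl substrate. Enzyme, human serum-derived C1s at 1.16 nM final, was incubated with test compound for 5 min, room temperature, pH 7.5 Tris buffer with 1 M NaCl. Rate-versus-concentration data fitted by nonlinear regression for IC50.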

In general, IC50 refers to the concentration at which inhibition is half-maximal. On to `C[C@@H](Nc1cnc(-c2cn[nH]c2)n(CC(=O)NCc2cc3cnccc3[nH]2)c1=O)c1ccc2oc3ccccc3c2c1` [Compound 360, (R)—N-((1H-pyrrolo[3,2-c]pyridin-2-yl)methyl)-2-(5-((1-(dibenzo[b,d]furan-2-yl)ethyl)amino)-6-oxo-2-(1H-pyrazol-4-yl)pyrimidin-1(6H)-yl)acetamide], for which the half-maximal inhibitory concentration (IC50) is below 100 nM. The result for `C[C@@H](Nc1cnc(N2CCCCC2)n(CC(=O)NCc2cc3cnccc3[nH]2)c1=O)c1ccc2oc3ccccc3c2c1` [Compound 361, (R)-N-((1H-pyrrolo[3,2-c]pyridin-2-yl)methyl)-2-(5-((1-(dibenzo[b,d]furan-2-yl)ethyl)-amino)-6-oxo-2-(piperidin-1-yl)pyrimidin-1(6H)-yl)acet-amide] reads below 100 nM; that for `C[C@@H](Nc1cncn(CC(=O)NCc2cc3cnccc3[nH]2)c1=O)c1coc(-c2ccccc2)n1` [Compound 362, (R)-N-((1H-pyrrolo[3,2-c]pyridin-2-yl)methyl)-2-(6-oxo-5-((1-(2-phenyloxazol-4-yl)-ethyl)amino)pyrimidin-1(6H)-yl)acetamide], 100 to 1000 nM. The result for `COCc1ncc(N[C@H](C)c2ccc3oc4ccccc4c3c2)c(=O)n1CC(=O)NCc1cc2cnccc2[nH]1` [Compound 365, (R)—N-((1H-pyrrolo[3,2-c]pyridine-2-yl)methyl)-2-(5-((1-(dibenzo[b,d]furan-2-yl)ethyl)amino)-2-(methoxymethyl)-6-oxopyrimidin-1(6H)-yl)acetamide] reads 100 to 1000 nM; that for `C[C@@H](Nc1cn(C)c(=O)n(CC(=O)NCc2cc3cnccc3[nH]2)c1=O)c1ccc2oc3ccccc3c2c1` [Compound 366, (R)—N-((1H-pyrrolo[3,2-c]pyridine-2-yl)methyl)-2-(5-((1-(dibenzo[b,d]furan-2-yl)ethyl)amino)-3-methyl-2,6-dioxo-3,6-dihydropyrimidin-1(2H)-yl)acetamide], above 1000 nM; that for `C[C@@H](Nc1cnc(N2CCCC2)n(CC(=O)NCc2cc3cnccc3[nH]2)c1=O)c1ccc2oc3ccccc3c2c1` [Compound 367, (R)—N-((1H-pyrrolo[3,2-c]pyridin-2-yl)methyl)-2-(5-((1-(dibenzo[b,d]furan-2-yl)ethyl)amino)-6-oxo-2-(pyrrolidin-1-yl)pyrimidin-1(6H)-yl)acetamide], above 1000 nM.

Turning to `C[C@@H](Nc1cnc(N2CC(F)C2)n(CC(=O)NCc2cc3cnccc3[nH]2)c1=O)c1ccc2oc3ccccc3c2c1` [Compound 368, (R)-N-((1H-pyrrolo[3,2-c]pyridin-2-yl)methyl)-2-(5-((1-(dibenzo[b,d]furan-2-yl)ethyl)-amino)-2-(3-fluoroazetidin-1-yl)-6-oxopyrimidin-1(6H)-yl)-acetamide], the IC50 was above 1000 nM. The result for `C[C@@H](Nc1cnc(N2CCC(O)C2)n(CC(=O)NCc2cc3cnccc3[nH]2)c1=O)c1ccc2oc3ccccc3c2c1` (stereo partly drawn) [Compound 369, N-((1H-pyrrolo[3,2-c]pyridin-2-yl)methyl)-2-(5-(((R)-1-(dibenzo[b,d]furan-2-yl)ethyl)-amino)-2-(3-hydroxypyrroli-din-1-yl)-6-oxopyrimidin-1(6H)-yl)acetamide] reads 100 to 1000 nM. `C[C@@H](Nc1cnc(N2CCCC(O)C2)n(CC(=O)NCc2cc3cnccc3[nH]2)c1=O)c1ccc2oc3ccccc3c2c1` (stereo partly drawn) [Compound 370, N-((1H-pyrrolo[3,2-c]pyridin-2-yl)methyl)-2-(5-(((R)-1-(dibenzo[b,d]furan-2-yl)ethyl)-amino)-2-(3-hydroxypiperidin-1-yl)-6-oxopyrimidin-1(6H)-yl)acetamide]: the IC50 fell in the range of 100 to 1000 nM.

As for `C[C@@H](Nc1cnc(N2CC3CC3C2)n(CC(=O)NCc2cc3cnccc3[nH]2)c1=O)c1ccc2oc3ccccc3c2c1` (stereo partly drawn) [Compound 371, N-((1H-pyrrolo[3,2-c]pyridin-2-yl)methyl)-2-(2-(3-azabicyclo [3.1.0]hexan-3-yl)-5-(((R)-1-(dibenzo[b,d]furan-2-yl)ethyl)-amino)-6-oxopyrimidin-1(6H)-yl)acetamide], the half-maximal inhibitory concentration (IC50) was above 1000 nM.
